Like-named read-outs stand apart in the source and are kept apart here. Each block holds one compound with its values, some of them ahead of it.
Experiments:
hEPO mRNA [1] = assay: hEPO expression after subcutaneous administration to mice; format: in vivo, female CD-1 mice; conditions: for Novel lipid/MC3 expression ratio, 6 hr. time point, s.c. hEPO 0.5 mpk: relative to MC3
Procedure, shortened: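 Lipid nanoparticle formulations carrying hEPO or luciferase mRNA were given subcutaneously at 0.5 mpk to female CD-1 mice. Whole-body luminescence imaging was done at 3, 6 and 24 h. Liver, spleen and injection-site expression were assessed ex vivo at 24 h.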

[2] = Pharmacokinetics of lipids in mice; format: in vivo; parameters: AUC / AUCall Mean: concentration or dose not given beside the values; conditions: mouse; for AUC: read-out: AUCall Mean
Description: FIGS. 45A and 45B are a pair of graphs illustrating pharmacokinetics of lipids of the disclosure in mice. Mice were administered compositions comprising Compound 50 (FIG. 45A) or Compound 301 (FIG. 45B), in nanoparticle compositions containing DSPC and PEG 1.

sC5b-9 = assay: Complement activation in vitro (sC5b-9 levels); format: cell-based; conditions: human cells contacted in vitro
Description: Complement activation assists in the clearance of pathogens from an organism. As it is undesirable that a subject's body recognize a nanoparticle composition as a foreign invader, low complement system activation upon administration of such a composition is preferred. The complex sC5b-9 is a marker for the activation of the complement system. Thus, human cells were contacted in vitro with nanoparticle compositions according to Table 1A and were evaluated for sC5b-9 levels.

IP-10 = assay: Cytokine induction in rats after intravenous administration; format: in vivo, rat; conditions: for IP-10: rats, 2.0 mpk, 6 hours, hEPO nanoparticle compositions; for IP-10 induction: rat, 48 hours after administration
Description: The expression of hEPO and cytokine induction in rats intravenously administered a nanoparticle composition at a dose of 2.0 mpk was measured at 6 h.
(§1) Table 19A summarizes the hEPO expression, IP-10 induction, liver and spleen levels, and alanine aminotransferase (ALT) and aspartate aminotransferase (AST) measured upon intravenous administration of formulations including Compounds 48, 49, and 50 to rat at 0.2 and 2 mpk and hEPO mRNA. hEPO concentrations were measured 6 hours after administration, while cytokine induction and liver and spleen levels were measured 48 hours after administration. hEPO and IP-10 concentrations are presented in pg/ml, while liver levels are provided in ng/g. ALT and AST levels are presented in international units.

[3] = Chemical stability of lipids in ethanol (lipid purity); format: physicochemical
Procedure, shortened: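 Lipid chemical stability was assessed as lipid purity after storage in ethanol at room temperature and at 37° C.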

hEPO mRNA [4] = assay: hEPO expression after intravenous administration to rats; format: in vivo, rat; conditions: for Lipid/MC3 hEPO expression: 6 hours after administration; for hEPO expression / hEPO expression 0.25 h / hEPO expression 0.5 h / hEPO expression 1 h / hEPO expression 2 h / hEPO expression 4 h / hEPO expression 8 h / hEPO expression 24 h / hEPO expression 48 h: rat; for Lipid/MC3 hEPO conc. ratio 2 mpk / Lipid/MC3 hEPO conc. ratio 0.2 mpk: rats
Procedure, shortened: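 Rats dosed intravenously once with nanoparticle composition, 0.2 or 2.0 mpk, formulated by the standard MC3 method. Tail-vein blood sampled at 6 h or at time points from 0.25 to 48 h. hEPO measured by ELISA.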

[5] = Lipid clearance: lipid level in mouse liver tissue (LC-MS/MS); format: in vivo; conditions: for % dose remaining Mouse liver tissue, 24 h: CD-1 mouse liver 24 h after 0.5 mg/kg bolus dose mRNA, n = 5 ± S.D.; for % Dose Remaining in Liver 6 h: Table 3D
[6] = ALT and AST after intravenous administration to rat (Table 19A); format: in vivo
Description: as §1

[7] = Liver, * = 2 terminal datapoints estimation
[8] = Spleen, * = 2 terminal datapoints estimation

Compound: CCCCCCCCCOC(=O)CCCCCCCN(CCO)CCCCCCCC(=O)OC(CCCCCCCC)CCCCCCCC [Compound 18, Heptadecan-9-yl 8-((2-hydroxyethyl)(8-(nonyloxy)-8-oxooctyl)amino)octanoate]
hEPO expression Lipid/MC3 ratio, 6 hr. (hEPO mRNA [1]; 0.5 mpk, 6 hr.): 2.63
hEPO expression Lipid/MC3 ratio, AUC (hEPO mRNA [1]; 0.5 mpk, AUC): 1.88
Cmax ([2]; Liver): 6050 ng/mL
HL [2, 7]: 5.8 h
AUC ([2]; Liver): 16900 ng·h/mL
Tmax ([2]; Liver, read-out: Tmax): 1 h
Cmax ([2]; Plasma): 44200 ng/mL
HL ([2]; Plasma): 1.2 h
AUC ([2]; Plasma): 61800 ng·h/mL
Tmax ([2]; Plasma, read-out: Tmax): 0.5 h
Cmax ([2]; Spleen): 3770 ng/mL
HL [2, 8]: 10.6 h
AUC ([2]; Spleen): 39400 ng·h/mL
Tmax ([2]; Spleen, read-out: Tmax): 4 h
Fold increase in sC5b-9 levels versus saline (sC5b-9): 1.28
sC5b-9 levels relative to saline (sC5b-9; in words): somewhat increase
IP-10 (IP-10): 517.3 pg/mL
Lipid Purity ([3]; t = 0): 94.37%
Lipid Purity ([3]; t = 96 h, 25° C.): 94.71%
Lipid Purity ([3]; t = 96 h, 37° C.): 95.01%
Lipid/MC3 hEPO expression (hEPO mRNA [4]; 2 mpk dose to rat): 0.81
hEPO expression (hEPO mRNA [4]; 6 h, 2 mpk, i.v.): 9.96e+06 pg/mL
hEPO expression 0.25 h (hEPO mRNA [4]; intravenous, 0.2 mpk): 20227 pg/mL
hEPO expression 0.5 h (hEPO mRNA [4]; intravenous, 0.2 mpk): 20743 pg/mL
hEPO expression 1 h (hEPO mRNA [4]; intravenous, 0.2 mpk): 194353 pg/mL
hEPO expression 2 h (hEPO mRNA [4]; intravenous, 0.2 mpk): 238107 pg/mL
hEPO expression 4 h (hEPO mRNA [4]; intravenous, 0.2 mpk): 514807 pg/mL
hEPO expression 8 h (hEPO mRNA [4]; intravenous, 0.2 mpk): 915320 pg/mL
hEPO expression 24 h (hEPO mRNA [4]; intravenous, 0.2 mpk): 412051 pg/mL
hEPO expression 48 h (hEPO mRNA [4]; intravenous, 0.2 mpk): 52361 pg/mL
Lipid/MC3 hEPO conc. ratio 2 mpk (hEPO mRNA [4]; intravenous, 2 mpk, 6 hours): 0.81
% dose remaining Mouse liver tissue, 24 h [5]: 0%
original dose remaining in liver tissue 24 hours post dose ([5]; mice, intravenous): no lipid detected

Compound: CCCCCCCCC(C)OC(=O)CCCCCCCN(CCO)CCCCCCCC(=O)OC(CCCCCCCC)CCCCCCCC (stereo not drawn) [Compound 48, decan-2-yl 8-((8-(heptadecan-9-yloxy)-8-oxooctyl)(2-hydroxyethyl)amino)octanoate]
Novel lipid/MC3 expression ratio, 6 hr. time point, s.c. hEPO 0.5 mpk (hEPO mRNA [1]): 8.09
ALT ([6]; 0.2 mpk): 59.6 international units
AST ([6]; 0.2 mpk): 140.8 international units
ALT ([6]; 2 mpk): 66.0 international units
AST ([6]; 2 mpk): 131.2 international units
IP-10 induction (IP-10; 0.2 mpk): 134 pg/mL
IP-10 induction (IP-10; 2 mpk): 970 pg/mL
Lipid/MC3 hEPO expression (hEPO mRNA [4]; 0.2 mpk dose to rat): 5.39
Lipid/MC3 hEPO expression (hEPO mRNA [4]; 2 mpk dose to rat): 3.84
hEPO expression (hEPO mRNA [4]; intravenous, 0.2 mpk, 6 hours): 4.06e+06 pg/mL
hEPO expression (hEPO mRNA [4]; intravenous, 2 mpk, 6 hours): 3.57e+07 pg/mL
Lipid/MC3 hEPO conc. ratio 0.2 mpk (hEPO mRNA [4]; intravenous, 0.2 mpk, 6 hours): 5.39
Lipid/MC3 hEPO conc. ratio 2 mpk (hEPO mRNA [4]; intravenous, 2 mpk, 6 hours): 3.84

IP-10 induction (IP-10; 0.2 mpk): 66 pg/mL
IP-10 induction (IP-10; 2 mpk): 932 pg/mL
Compound: CCCCCCCCC(CC)OC(=O)CCCCCCCN(CCO)CCCCCCCC(=O)OC(CCCCCCCC)CCCCCCCC (stereo not drawn) [Compound 49, heptadecan-9-yl 8-((2-hydroxyethyl)(8-oxo-8-(undecan-3-yloxy)octyl)amino)octanoate]
Novel lipid/MC3 expression ratio, 6 hr. time point, s.c. hEPO 0.5 mpk (hEPO mRNA [1]): 8.01
ALT ([6]; 0.2 mpk): 54.0 international units
AST ([6]; 0.2 mpk): 99.4 international units
ALT ([6]; 2 mpk): 77.8 international units
AST ([6]; 2 mpk): 132.4 international units
hEPO expression (hEPO mRNA [4]; intravenous, 0.2 mpk, 6 hours): 3.17e+06 pg/mL
hEPO expression (hEPO mRNA [4]; intravenous, 2 mpk, 6 hours): 3.04e+07 pg/mL
Lipid/MC3 hEPO conc. ratio 0.2 mpk (hEPO mRNA [4]; intravenous, 0.2 mpk, 6 hours): 4.13
Lipid/MC3 hEPO conc. ratio 2 mpk (hEPO mRNA [4]; intravenous, 2 mpk, 6 hours): 3.28

Compound: CCCCCCCCC(CCC)OC(=O)CCCCCCCN(CCO)CCCCCCCC(=O)OC(CCCCCCCC)CCCCCCCC (stereo not drawn) [Compound 50, dodecan-4-yl 8-((8-(heptadecan-9-yloxy)-8-oxooctyl)(2-hydroxyethyl)amino)octanoate]
ALT ([6]; 0.2 mpk): 59.2 international units
AST ([6]; 0.2 mpk): 143.2 international units
ALT ([6]; 2 mpk): 78.8 international units
AST ([6]; 2 mpk): 158.4 international units
IP-10 induction (IP-10; 0.2 mpk): 20 pg/mL
IP-10 induction (IP-10; 2 mpk): 1065 pg/mL
hEPO expression (hEPO mRNA [4]; intravenous, 0.2 mpk, 6 hours): 2.62e+06 pg/mL
hEPO expression (hEPO mRNA [4]; intravenous, 2 mpk, 6 hours): 2.81e+07 pg/mL
Lipid/MC3 hEPO conc. ratio 0.2 mpk (hEPO mRNA [4]; intravenous, 0.2 mpk, 6 hours): 3.41
Lipid/MC3 hEPO conc. ratio 2 mpk (hEPO mRNA [4]; intravenous, 2 mpk, 6 hours): 3.03

Compound: CCCCC/C=C\C/C=C\CCCCCCCCC(CCCCCCCC/C=C\C/C=C\CCCCC)OC(=O)CCCN(C)C [MC3, DLin-MC3-DMA, reference compound]
ALT ([6]; 0.2 mpk): 63.6 international units
AST ([6]; 0.2 mpk): 134.8 international units
ALT ([6]; 2 mpk): 79.6 international units
AST ([6]; 2 mpk): 139.0 international units
AUCall Mean ([2]; Liver): 1,410,000 hr * ng/mL
Cmax Mean ([2]; Liver): 33,000 ng/mL
Tmax ([2]; Liver): 24 h
HL [2, 7]: 52.5* hr
AUCall Mean ([2]; Plasma): 69,100 hr * ng/mL
Cmax Mean ([2]; Plasma): 28,900 ng/mL
HL ([2]; Plasma): 8.4 h
Tmax ([2]; Plasma): 0.5 h
AUCall Mean ([2]; Spleen): 787,000 hr * ng/mL
Cmax Mean ([2]; Spleen): 21,200 ng/mL
Tmax ([2]; Spleen): 8 h
HL [2, 8]: 33.3* hr
Fold increase in sC5b-9 levels versus saline (sC5b-9): 0.73
IP-10 induction (IP-10; 0.2 mpk): 2 pg/mL
IP-10 induction (IP-10; 2 mpk): 596 pg/mL
IP-10 (IP-10): 688.3 pg/mL
Lipid/MC3 hEPO expression (hEPO mRNA [4]; 0.2 mpk dose to rat): 1
Lipid/MC3 hEPO expression (hEPO mRNA [4]; 2 mpk dose to rat): 1
AUC (hEPO) (hEPO mRNA [4]; Table 19B): 3.46e+07 pg·h/mL
[hEPO] (hEPO mRNA [4]; Table 19B, species, dose and time not given): 14800 pg/mL
hEPO expression (hEPO mRNA [4]; 6 h, 2 mpk, i.v.): 1.33e+07 pg/mL
hEPO expression 0.25 h (hEPO mRNA [4]; intravenous, 0.2 mpk): 0 pg/mL
hEPO expression 0.5 h (hEPO mRNA [4]; intravenous, 0.2 mpk): 42457 pg/mL
hEPO expression 1 h (hEPO mRNA [4]; intravenous, 0.2 mpk): 93720 pg/mL
hEPO expression 2 h (hEPO mRNA [4]; intravenous, 0.2 mpk): 524093 pg/mL
hEPO expression 4 h (hEPO mRNA [4]; intravenous, 0.2 mpk): 601307 pg/mL
hEPO expression (hEPO mRNA [4]; intravenous, 0.2 mpk, 6 hours): 7.68e+06 pg/mL
hEPO expression 8 h (hEPO mRNA [4]; intravenous, 0.2 mpk): 1536833 pg/mL
hEPO expression 24 h (hEPO mRNA [4]; intravenous, 0.2 mpk): 703619 pg/mL
hEPO expression 48 h (hEPO mRNA [4]; intravenous, 0.2 mpk): 64687 pg/mL
hEPO expression (hEPO mRNA [4]; intravenous, 2 mpk, 6 hours): 9.29e+06 pg/mL
Lipid/MC3 hEPO conc. ratio 0.2 mpk (hEPO mRNA [4]; intravenous, 0.2 mpk, 6 hours): 1
Lipid/MC3 hEPO conc. ratio 2 mpk (hEPO mRNA [4]; intravenous, 2 mpk, 6 hours): 1
% dose remaining Mouse liver tissue, 24 h [5]: 71 ± 27%
% Dose Remaining in Liver 6 h ([5]; second column (head also says 6 h), intravenous): 54%
% Dose Remaining in Liver 6 h ([5]; intravenous): 80%
Mouse liver tissue level (ng/g) 6 h ([5]; Table 3E, intravenous, 6 h): 85400 ng/g
Mouse liver tissue level (ng/g) 24 h ([5]; Table 3E, intravenous, 24 h): 67433 ng/g
% Remaining dose at 6 h ([5]; Table 3E, mouse liver, 6 h): >98%
% Remaining dose at 24 h ([5]; Table 3E, mouse liver, 24 h): 79.7%

Source: patent US12263248B2, “Compounds and compositions for intracellular delivery of therapeutic agents” (ModernaTX, Inc., priority 2018, dated 2025)
